Values of other authors in EP4140474A1, “NUT[…] THE REDUCTION OF OSTE[…] AND INFLAMMATION” (Theracell Advanced Biotechnology S.A., priority 2021, dated 2023).

Assays:
[1] = biological target: lipoxygenase
[2] = biological target: MMP13 (Homo sapiens, UniProt P45452); conditions: selective inhibitor of MMP13

Row | Structure (SMILES) | IC50 [1] | IC50 [2]
1 | Oc1ccc(C=Cc2cc(O)cc(O)c2)cc1 [resveratrol] | 2700 nM | –
2 | O=C(/C=C/c1ccc(O)c(O)c1)O[C@H](Cc1ccc(O)c(O)c1)C(=O)O [rosmarinic, rosmarinic acid] | – | 2900 nM
